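Five compound concentrations were applied to cells in 96-well plates for 48 hours; endpoints were derived by simple linear interpolation of the resulting dose-response curve. TGI: total growth inhibition.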

Test systems include CAKI-1 renal; CCRF-CEM leukemia; DU-145 prostate; EKVX NSCLC; HCC-2998 colon; HCT-116 colon; HL-60(TB) leukemia; K-562 leukemia; KM12 colon; LOX IMVI melanoma; M14 melanoma; MDA-MB-435; NCI-H460 lung; SF-295 CNS; SK-MEL-2 melanoma; SK-MEL-5 melanoma; SR leukemia; TK-10 renal; U251 CNS; BT-549 breast.
What all share (assay): NCI tumour cell line growth inhibition, 48 h

For the molecule `CC1(C)N=C(C(=O)c2ccccc2)N(O)C1(O)c1ccccc1` (stereo not given), the TGI with CAKI-1 renal, with CCRF-CEM leukemia, in the experiment on DU-145 prostate, with EKVX NSCLC, in the experiment with HCC-2998 colon and with HCT-116 colon was above 100 µM throughout. For the same molecule, the TGI in the experiment with HL-60(TB) leukemia, in the experiment on K-562 leukemia, with KM12 colon, in the experiment on LOX IMVI melanoma, in the experiment on M14 melanoma and in the experiment with MDA-MB-435 was above 100 µM throughout. In addition, the TGI with NCI-H460 lung, in the experiment with SF-295 CNS, with SK-MEL-2 melanoma, in the experiment with SK-MEL-5 melanoma, in the experiment on SR leukemia and in the experiment on TK-10 renal was above 100 µM each time. In the experiment on U251 CNS, this molecule came in with a TGI above 100 µM.
Turning to `CCCCNC(=O)CCN(C(=O)O)S(=O)(=O)c1ccc(NC(=O)c2ccccc2)cc1`, the TGI in the experiment with CAKI-1 renal, in the experiment with CCRF-CEM leukemia, with EKVX NSCLC, in the experiment on HCC-2998 colon, with HCT-116 colon and in the experiment with HL-60(TB) leukemia was above 100 µM throughout. In addition, the TGI in the experiment on K-562 leukemia was above 100 µM; in the experiment with KM12 colon it was above 100 µM; with LOX IMVI melanoma, 34.6 µM; in the experiment on M14 melanoma, above 100 µM; with NCI-H460 lung, above 100 µM; with SF-295 CNS, above 100 µM. Besides, the TGI with SK-MEL-2 melanoma, in the experiment on SK-MEL-5 melanoma, in the experiment with SR leukemia, in the experiment on TK-10 renal and with U251 CNS was above 100 µM throughout.
For the molecule `CCc1cccc(CC)c1NC(=O)C1=C(C)NC(C)=C(C(=O)Nc2c(CC)cccc2CC)C1c1ccc2c(c1)OCO2`, the TGI was determined as 52 µM with CAKI-1 renal; 20.3 µM in the experiment on CCRF-CEM leukemia; 38.3 µM in the experiment with EKVX NSCLC; 36.7 µM in the experiment on HCC-2998 colon; 35.7 µM in the experiment with HCT-116 colon; 26.4 µM in the experiment on HL-60(TB) leukemia. Moreover, the TGI in the experiment with K-562 leukemia was determined as 38.2 µM; in the experiment with KM12 colon, 36.5 µM; in the experiment on LOX IMVI melanoma, 26 µM; with M14 melanoma, 31.1 µM; in the experiment with NCI-H460 lung, 28.6 µM; with SF-295 CNS, 29.2 µM. Besides, the TGI with SK-MEL-2 melanoma is 33.7 µM; with SK-MEL-5 melanoma, 33 µM; in the experiment with SR leukemia it was 65 µM; with TK-10 renal, above 100 µM; with U251 CNS, 27.4 µM.
In the case of `C/C(CC(=O)NC1=CC=C(NC(=O)C/C(C)=N\Nc2ccccc2)CC1)=N/Nc1ccccc1`, the TGI with CAKI-1 renal, in the experiment on CCRF-CEM leukemia, in the experiment with EKVX NSCLC, in the experiment on HCC-2998 colon, in the experiment on HCT-116 colon and with HL-60(TB) leukemia was above 100 µM in each case. Besides, the TGI with K-562 leukemia, with KM12 colon, with LOX IMVI melanoma, in the experiment with M14 melanoma, in the experiment with NCI-H460 lung and in the experiment on SF-295 CNS was above 100 µM each time. Further, the TGI in the experiment on SK-MEL-2 melanoma, in the experiment with SK-MEL-5 melanoma, with SR leukemia, in the experiment on TK-10 renal and in the experiment on U251 CNS was above 100 µM throughout.
On to `Cn1nc2ccc3nccc(N(CCO)CCO)c3c2n1`, for which the TGI in the experiment with CAKI-1 renal, in the experiment with CCRF-CEM leukemia, with EKVX NSCLC, with HCC-2998 colon, with HCT-116 colon and with HL-60(TB) leukemia was above 100 µM throughout. In addition, the TGI in the experiment with K-562 leukemia, with KM12 colon, in the experiment on LOX IMVI melanoma, in the experiment on M14 melanoma, in the experiment with NCI-H460 lung and in the experiment on SF-295 CNS was above 100 µM throughout. Also, the TGI in the experiment with SK-MEL-2 melanoma, with SK-MEL-5 melanoma, in the experiment with SR leukemia, with TK-10 renal and in the experiment on U251 CNS was above 100 µM in each case.
On to `Cn1c(=O)cc(NCCc2ccccc2)[nH]c1=O`, for which the TGI in the experiment with BT-549 breast, in the experiment on CAKI-1 renal, in the experiment on CCRF-CEM leukemia, with DU-145 prostate, in the experiment with EKVX NSCLC and in the experiment on HCC-2998 colon was above 100 µM each time. In addition, the TGI in the experiment on HCT-116 colon, in the experiment with K-562 leukemia, in the experiment with KM12 colon, in the experiment on LOX IMVI melanoma, with M14 melanoma and with NCI-H460 lung was above 100 µM in each case. Further, the TGI is 97.6 µM in the experiment with SF-295 CNS; above 100 µM with SK-MEL-2 melanoma; above 100 µM with SK-MEL-5 melanoma; above 100 µM with TK-10 renal; above 100 µM with U251 CNS.
With `CC(=O)OC1CC[C@@]2(C)C(C1)CC(OC(C)=O)[C@@H]1C2CC(OC(C)=O)[C@]2(C)C(C(C)CC=C(c3ccc(Cl)cc3)c3ccc(Cl)cc3)CCC12` (stereo not given in full), the TGI is 95.2 µM in the experiment on CCRF-CEM leukemia; above 100 µM in the experiment with EKVX NSCLC; above 100 µM in the experiment on HCC-2998 colon; above 100 µM in the experiment on HCT-116 colon; 27.9 µM in the experiment on HL-60(TB) leukemia; above 100 µM in the experiment with K-562 leukemia. The TGI in the experiment with KM12 colon, in the experiment with M14 melanoma, with MDA-MB-435, in the experiment on NCI-H460 lung, in the experiment with SF-295 CNS and in the experiment on SK-MEL-5 melanoma was above 100 µM in each case. The TGI in the experiment with SR leukemia, in the experiment with TK-10 renal and with U251 CNS was above 100 µM throughout.
For the molecule `CC1(C)CCC[C@]2(C)[C@@H]1CC[C@@]13O[C@@H]1C1=C(CO)C(=O)OC1=C[C@@H]23`, the TGI was 51 µM in the experiment on BT-549 breast; 34.2 µM with CAKI-1 renal; 39.7 µM with DU-145 prostate; 29.2 µM in the experiment with EKVX NSCLC; 46.7 µM in the experiment with HCC-2998 colon; 12.8 µM in the experiment with HCT-116 colon. For the same molecule, the TGI in the experiment on K-562 leukemia is above 100 µM; with KM12 colon it was 24.8 µM; in the experiment on M14 melanoma it was 33.9 µM; with MDA-MB-435, 61.5 µM; in the experiment with NCI-H460 lung, 67.4 µM; with SF-295 CNS, 44.9 µM. Also, the TGI with SK-MEL-2 melanoma turned out to be 53.8 µM; with SK-MEL-5 melanoma it was 29.5 µM; in the experiment with TK-10 renal, 55.5 µM; in the experiment with U251 CNS, 67.4 µM.
